According to patent US11572590B2, “Methods for evaluating tumor cell spheroids using 3D microfluidic cell culture device” (Dana-Farber Cancer Institute, Inc., priority 2017, dated 2023):
Read-outs that look alike come from different tables or passages of the source.

Assays:
Assay in all cases: SelectScreen Kinase Profiling, single point inhibition and IC50 for off-target kinases
Type in all cases: biochemical
[1] = biological target: off-target kinases (Homo sapiens, UniProt P36894); conditions: BMPR1A (ALK3), LanthaScreen Binding
Experimental: (§1) Biochemical single point inhibition and IC50 concentrations for TBK1, IKKε (IKBKE), and off-target kinases were determined at ThermoFisher Scientific using SelectScreen Kinase Profiling Services (Madison, Wis., USA) (Tables S4A and S4B-1-7). To determine cellular potency, the human colorectal cancer carcinoma cell line HCT116 (ATCC, Manassas, Va.) was maintained in T175 flasks in complete RPMI medium; RPMI 1640 supplemented with 10% FBS, 1× Penicillin-Streptomycin solution and 1×MEM (non-essential amino acids). HCT116 cells were grown to 90-95% confluency in T175 flasks containing complete RPMI medium and transfected in bulk using Lipofectamine 2000 (Invitrogen, Carlsbad, Calif.) with 70 μg of ISG54-luciferase reporter plasmid (Elim Biopharmaceuticals Inc., Hayward, Calif.). The reporter plasmid contains a luciferase gene expression cassette under the transcriptional regulation of the promoter of the human interferon stimulated gene 54 (ISG54). Transfection of the cells was allowed to take place for 6 hours, after which the cells were harvested by treatment with 0.25% trypsin EDTA (Corning Inc., Corning, N.Y.). Trypsinized cells were added to 384-well poly-d-lysine treated black clear bottom tissue culture assay plates (Greiner Bio-One GmbH, Kremsmünster, Austria) at a density of 20,000 cells/well in 80 μL of complete RPMI medium and incubated overnight. After 16-18 hours post-transfection, the assay plates were washed with PBS (Corning Inc., Corning, N.Y.), followed by addition of 80 μL/well of serum-free RPMI 1640 medium containing 1× Penicillin-Streptomycin solution, 1×MEM and 350 nL of DMSO or titrations of Compound 1. Compound 1 titrations were generated by 1.5-fold dilution steps in two overlapping serial dilution series to generate a 40-point compound dose range. After incubation at 37° C. for 1 hour, the cells were stimulated with Poly(I:C) (InvivoGen, San Diego, Calif.) at a final concentration of 15 μg/mL in Optimem media (Life Technologies, Rockville, Md.). The assay plates were incubated for 5 hours at 37° C., followed by addition of One-Glo luciferase firefly reagent (Promega, Madison, Wis.) at 1:1 volume/well and luminescence was measured in an EnVision Multilabel Plate Reader (PerkinElmer, Santa Clara, Calif.). The EC50 values were calculated from the fit of the dose-response curves to a four-parameter equation. All EC50 values represent geometric mean values of a minimum of four determinations.

[2] = biological target: T1, off-target kinases (Homo sapiens, UniProt Q92630); conditions: DYRK2, LanthaScreen Binding
T1 sequence (Q92630 1-601): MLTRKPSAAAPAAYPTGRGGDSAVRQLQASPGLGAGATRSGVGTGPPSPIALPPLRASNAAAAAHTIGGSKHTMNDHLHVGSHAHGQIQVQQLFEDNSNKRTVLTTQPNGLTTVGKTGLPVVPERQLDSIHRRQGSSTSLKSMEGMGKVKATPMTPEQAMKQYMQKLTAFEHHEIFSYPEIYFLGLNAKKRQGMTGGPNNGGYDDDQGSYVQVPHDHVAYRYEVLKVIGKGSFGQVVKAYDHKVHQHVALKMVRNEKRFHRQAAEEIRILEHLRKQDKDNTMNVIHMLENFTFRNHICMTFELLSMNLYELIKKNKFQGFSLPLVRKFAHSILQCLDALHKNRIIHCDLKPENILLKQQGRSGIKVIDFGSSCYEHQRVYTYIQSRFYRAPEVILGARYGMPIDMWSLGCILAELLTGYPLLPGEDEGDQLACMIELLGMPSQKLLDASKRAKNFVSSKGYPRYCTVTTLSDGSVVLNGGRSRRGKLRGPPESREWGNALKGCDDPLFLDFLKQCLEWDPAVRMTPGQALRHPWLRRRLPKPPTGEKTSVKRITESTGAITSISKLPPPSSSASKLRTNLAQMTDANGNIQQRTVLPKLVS
Experimental: as §1

[3] = biological target: T2, off-target kinases (Homo sapiens, UniProt Q16566)
T2 sequence (Q16566 1-473): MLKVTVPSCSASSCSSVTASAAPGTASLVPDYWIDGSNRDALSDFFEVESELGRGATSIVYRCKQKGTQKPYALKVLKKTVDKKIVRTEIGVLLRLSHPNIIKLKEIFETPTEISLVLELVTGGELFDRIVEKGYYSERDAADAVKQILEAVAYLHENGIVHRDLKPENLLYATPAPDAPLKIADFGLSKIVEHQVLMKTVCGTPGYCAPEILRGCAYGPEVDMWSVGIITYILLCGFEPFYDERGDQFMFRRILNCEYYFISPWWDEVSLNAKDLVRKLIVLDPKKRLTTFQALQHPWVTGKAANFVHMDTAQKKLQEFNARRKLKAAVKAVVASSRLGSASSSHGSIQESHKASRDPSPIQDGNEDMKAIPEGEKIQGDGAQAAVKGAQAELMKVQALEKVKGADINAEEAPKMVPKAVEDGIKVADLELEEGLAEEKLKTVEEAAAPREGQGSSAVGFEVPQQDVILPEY
Experimental: as §1

[4] = biological target: T3, off-target kinases (Homo sapiens, UniProt O94768); conditions: STK17B (DRAK2), LanthaScreen Binding
T3 sequence (O94768 1-372): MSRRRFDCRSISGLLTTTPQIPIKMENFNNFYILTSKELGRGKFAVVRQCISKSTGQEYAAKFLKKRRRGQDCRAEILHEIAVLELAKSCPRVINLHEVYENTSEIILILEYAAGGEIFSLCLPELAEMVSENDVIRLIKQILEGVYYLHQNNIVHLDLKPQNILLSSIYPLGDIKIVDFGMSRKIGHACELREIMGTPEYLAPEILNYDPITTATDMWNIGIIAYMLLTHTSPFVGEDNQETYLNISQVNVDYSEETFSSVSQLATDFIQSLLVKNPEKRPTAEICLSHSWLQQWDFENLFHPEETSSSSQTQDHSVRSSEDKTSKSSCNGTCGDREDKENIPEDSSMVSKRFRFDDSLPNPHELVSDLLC
Experimental: as §1

Chain of off-target kinases (Homo sapiens, UniProt P36894) (P36894 24-532): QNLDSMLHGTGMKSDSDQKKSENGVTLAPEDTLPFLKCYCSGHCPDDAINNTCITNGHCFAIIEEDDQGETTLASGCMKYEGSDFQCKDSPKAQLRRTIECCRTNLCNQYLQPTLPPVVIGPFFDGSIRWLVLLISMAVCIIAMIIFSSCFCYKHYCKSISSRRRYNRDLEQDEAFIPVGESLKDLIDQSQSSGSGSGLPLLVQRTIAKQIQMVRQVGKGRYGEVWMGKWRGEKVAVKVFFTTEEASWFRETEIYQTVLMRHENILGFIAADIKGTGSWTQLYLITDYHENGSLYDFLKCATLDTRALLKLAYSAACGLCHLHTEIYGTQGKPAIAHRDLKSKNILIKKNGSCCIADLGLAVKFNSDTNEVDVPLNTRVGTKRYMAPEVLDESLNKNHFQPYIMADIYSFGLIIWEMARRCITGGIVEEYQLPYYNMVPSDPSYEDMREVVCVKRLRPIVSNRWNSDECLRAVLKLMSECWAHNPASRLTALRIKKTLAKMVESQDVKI

SMILES: N#Cc1cc(-c2ncnc(Nc3ccc(N4CCN(C5COC5)CC4)cc3)n2)ccc1OC1CCOCC1 [Compound 1, 5-(4-((4-(4-(oxetan-3-yl)piperazin-1-yl)phenyl)amino)-1,3,5-triazin-2-yl)-2-((tetrahydro-2H-pyran-4-yl)oxy)benzonitrile]
- inhibition ([1]; read-out: % Inhibition 1): 51%
- inhibition ([1]; read-out: % Inhibition 2): 51%
- inhibition ([1]; read-out: % Inhibition Avg): 51%
- inhibition ([2]; read-out: % Inhibition 1): 54%
- inhibition ([2]; read-out: % Inhibition 2): 53%
- inhibition ([2]; read-out: % Inhibition Avg): 54%
- inhibition ([3]; CAMK4 (CaMKIV), ZLYTE, ATP Km app, read-out: % Inhibition 2): -2%
- inhibition ([3]; CAMK4 (CaMKIV), ZLYTE, ATP Km app, read-out: % Inhibition Avg): -2%
- inhibition ([3]; read-out: % Inhibition 1): -2%
- inhibition ([4]; read-out: % Inhibition 1): 94%
- inhibition ([4]; read-out: % Inhibition 2): 84%
- inhibition ([4]; read-out: % Inhibition Avg): 89%
